Patent publication US20240109900A1, “AZABICYCLIC SHP2 INHIBITORS” (IRBM S.P.A., priority 2021, published 2024)
Like-named read-outs stand apart in the source and are kept apart here.

Tests used:
[1] = target: SHP-2 enzyme (Met1-Leu525) (Homo sapiens (Human), UniProt Q06124); experiment: SHP2 inhibition enzymatic assay; format: biochemical; conditions: 0.5 nM SHP-2 activated by 500 nM IRS1 peptide, 75 μM DiFMUP substrate; read-out: SHP2wt-IC50
How it was run: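 Compounds were preincubated 30 min with 0.5 nM SHP-2 (Met1-Leu525) plus 500 nM IRS1 activating peptide (pH 7.2 HEPES, 5 mM DTT), then 75 μM DiFMUP substrate reacted 30 min at room temperature. After bpV quench, DiFMUP fluorescence gave % inhibition; four-parameter logistic fit yielded IC50.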

[2] = test system: ERK phosphorylation in KYSE-520 cells; experiment: Phospho-ERK cellular assay; format: cell-based; conditions: KYSE-520 cells, 2 h at 37° C., phospho-ERK1/2 (Thr202/Tyr204) TR-FRET, read-out: PERK IC50
How it was run: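 TR-FRET read-out of ERK1/2 Thr202/Tyr204 phosphorylation was taken after overnight antibody incubation at room temperature. Before that, KYSE-520 cells were treated 2 h at 37 °C with compound dilutions and lysed 30 min. Percent inhibition relative to vehicle and cell-free wells was fitted four-parametrically to give IC50.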

Chain of SHP-2 enzyme (Met1-Leu525) (Q06124 1-525): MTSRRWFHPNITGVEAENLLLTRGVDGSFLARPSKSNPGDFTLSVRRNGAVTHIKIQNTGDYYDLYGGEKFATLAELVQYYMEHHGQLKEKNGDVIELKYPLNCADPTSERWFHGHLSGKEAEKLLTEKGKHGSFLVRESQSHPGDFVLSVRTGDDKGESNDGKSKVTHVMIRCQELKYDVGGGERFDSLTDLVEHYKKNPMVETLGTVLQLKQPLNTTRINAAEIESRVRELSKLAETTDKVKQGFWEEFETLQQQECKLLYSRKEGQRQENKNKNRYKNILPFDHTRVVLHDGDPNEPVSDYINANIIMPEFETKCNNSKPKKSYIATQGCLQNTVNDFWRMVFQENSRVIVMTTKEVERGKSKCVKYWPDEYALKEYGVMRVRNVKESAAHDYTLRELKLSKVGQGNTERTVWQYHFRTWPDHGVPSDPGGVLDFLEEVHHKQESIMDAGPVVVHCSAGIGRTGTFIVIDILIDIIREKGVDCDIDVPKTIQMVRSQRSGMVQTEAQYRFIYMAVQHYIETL

Row | SMILES | IC50 [1] [nM] | IC50 ([2]; Homo sapiens, KYSE-520, 2 h) [nM] | IC50 [2] [nM]
1 | Cc1csc([C@@]2(CN)[C@@H]3CN(c4cnc5nc(Sc6ccnc(-n7cccn7)c6Cl)ccc5n4)C[C@@H]32)n1 [Example 515, ((1R,5S,6r)-3-(6-((3-chloro-2-(1H-pyrazol-1-yl)pyridin-4-yl)thio)pyrido[2,3-b]pyrazin-2-yl)-6-(4-methylthiazol-2-yl)-3-azabicyclo[3.1.0]hexan-6-yl)methanamine] | < 500 | < 1000 | –
2 | Cc1csc([C@@]2(CN)[C@@H]3CN(c4cnc5c(-c6ccnc(N)c6Cl)n[nH]c5n4)C[C@@H]32)n1 [Example 517] | < 500 | – | < 1000
3 | Cc1csc([C@@]2(CN)[C@@H]3CN(c4cnc5c(-c6ccc7nn(CC(F)(F)F)cc7c6Cl)n[nH]c5n4)C[C@@H]32)n1 [Example 518] | < 500 | – | < 1000
4 | Cc1csc([C@@]2(CN)[C@@H]3CN(c4cnc5c(-c6ccncc6Cl)n[nH]c5n4)C[C@@H]32)n1 [Example 519] | < 500 | – | < 1000
5 | CS(=O)(=O)c1ccc(-c2n[nH]c3nc(N4CC[C@@H]5[C@H](C4)[C@@]5(CN)c4ccccc4F)cnc23)c2cccnc12 [Example 521, ((1S,6R,7R)-7-(2-fluorophenyl)-3-(3-(8-(methylsulfonyl)quinolin-5-yl)-1H-pyrazolo[3,4-b]pyrazin-6-yl)-3-azabicyclo[4.1.0]heptan-7-yl)methanamine] | < 500 | < 1000 | –
6 | NC[C@]1(c2ccccc2F)[C@@H]2CCN(c3cnc4c(-c5ccnc(-n6cccc6)c5Cl)n[nH]c4n3)C[C@@H]21 [Example 522, ((1S,6R,7R)-3-(3-(3-chloro-2-(1H-pyrrol-1-yl)pyridin-4-yl)-1H-pyrazolo[3,4-b]pyrazin-6-yl)-7-(2-fluorophenyl)-3-azabicyclo[4.1.0]heptan-7-yl)methanamine] | < 500 | < 1000 | –
7 | NC[C@]1(c2ccccc2F)[C@@H]2CCN(c3cnc(Sc4ccc5nccnc5c4Cl)c(N)n3)C[C@@H]21 [Example 523, 6-((1S,6R,7R)-7-(aminomethyl)-7-(2-fluorophenyl)-3-azabicyclo[4.1.0]heptan-3-yl)-3-((5-chloroquinoxalin-6-yl)thio)pyrazin-2-amine] | < 500 | < 1000 | –
8 | NC[C@]1(c2ccccc2F)[C@@H]2CCN(c3cnc(Sc4ccnc5ccccc45)c(N)n3)C[C@@H]21 [Example 524, 6-((1S,6R,7R)-7-(aminomethyl)-7-(2-fluorophenyl)-3-azabicyclo[4.1.0]heptan-3-yl)-3-(quinolin-4-ylthio)pyrazin-2-amine] | < 500 | > 5000 | –
9 | NC[C@]1(c2ccccc2F)[C@@H]2CCN(c3cnc(Sc4ccc(C(N)=O)c5ncccc45)c(N)n3)C[C@@H]21 [Example 525, 5-((3-amino-5-((1S,6R,7R)-7-(aminomethyl)-7-(2-fluorophenyl)-3-azabicyclo[4.1.0]heptan-3-yl)pyrazin-2-yl)thio)quinoline-8-carboxamide] | < 500 | > 5000 | –
10 | Cn1cnc2ccc(-c3ccc4nc(N5CC[C@@H]6[C@H](C5)[C@@]6(CN)c5cc(F)ccc5F)cnc4n3)cc21 [Example 527, ((1S,6R,7R)-7-(2,5-difluorophenyl)-3-(6-(1-methyl-1H-benzo[d]imidazol-6-yl)pyrido[2,3-b]pyrazin-2-yl)-3-azabicyclo[4.1.0]heptan-7-yl)methanamine] | < 500 | 1000 to 5000 | –
11 | Cc1csc([C@@]2(CN)[C@@H]3CN(c4cnc5c(-c6ccc7nn(C8CC8)cc7c6Cl)n[nH]c5n4)C[C@@H]32)n1 [Example 528] | < 500 | – | < 1000
12 | Cc1nccc(-c2ccc3nc(N4CC[C@@H]5[C@H](C4)[C@@]5(CN)c4ccccc4F)cnc3n2)c1F [Example 529] | < 500 | < 1000 | –
13 | NC[C@]1(c2ccccc2F)[C@@H]2CCN(c3cnc4nc(-c5ccnc(-n6cccn6)c5)ccc4n3)C[C@@H]21 [Example 530, ((1S,6R,7R)-3-(6-(2-(1H-pyrazol-1-yl)pyridin-4-yl)pyrido[2,3-b]pyrazin-2-yl)-7-(2-fluorophenyl)-3-azabicyclo[4.1.0]heptan-7-yl)methanamine] | < 500 | > 5000 | –
